The values below are quoted from earlier work in US20130309199A1, “Novel Treatment of Multiple Sclerosis (MS)” (priority 2010, published 2013).

Structures are written as SMILES.

Data set [1] relates to active multiple sclerosis lesions. The settings on record: gadolinium-enhanced MR images; cited from earlier work.
For a further data set, the system named is detrusor instability. The settings on record: cited from earlier work.

As for `CC(C)Cc1ccc(C(C)C(=O)O)cc1` (stereo not shown) [Ibuprofen], in data set [1], the “suppression of active multiple sclerosis lesions” value is “does not suppress”.
Take `CC(C(=O)O)c1ccc(-c2ccccc2)c(F)c1` (racemic) [Flurbiprofen]: the side effects occurred with detrusor instability (compared with five on placebo, P less than 0.025) is given as 13 patients. Further, the tolerability entry in the data set with detrusor instability (in vivo) is recorded as “well tolerated by most patients”. Further, the frequency entry with detrusor instability (vs placebo, P less than 0.001) is reported as “significantly reduced”. Moreover, the “detrusor-pressure rise during bladder filling” value with detrusor instability (vs placebo, P less than 0.01) is “significantly reduced”. Besides, in the data set on detrusor instability (vs placebo, P less than 0.025), the urge incontinence result is “significantly reduced” and the urgency result was “significantly reduced”.
